From patent US20100035754A1, “AGENT FOR IMPROVING ALKALI RESISTANCE OF PLANT AND METHOD FOR IMPROVING ALKALI RESISTANCE OF PLANT” (COSMO OIL CO., LTD, priority 2007, published 2010)

Assays:
tomato = test: Tomato seedlings transplanted to alkaline soil, foliage spray of agent every 2 weeks, dry weight of shoots; type: in vivo, tomato (Kyoryoku Beijyu); settings: pH of soil 8.8, foliage spray 5 mL/pot every 2 weeks, transplanted June 6, harvested July 6
Experimental: Calcium carbonate was added to field soil so as to adjust the Ca content to 5 mass %, and an appropriate amount of aqueous sodium carbonate solution was added thereto, followed by sufficiently mixing, to thereby provide alkaline soil (pH: 8.8). A chemical fertilizer (base fertilizer) was added to the alkaline soil in an amount of 10 kg/10 a (as reduced to N). Each of the pots (1/5000 a) was filled with the above soil, and on the day of June 6, tomato seedlings (Kyoryoku Beijyu, product of Nohara Seed Co., Ltd.) were transplanted to the soil, followed by cultivation in a greenhouse. After transplanting, an aqueous solution (0.05 mass %) of each agent having a composition shown in Table 8 was sprayed every 2 weeks to the stems and leaves of the plants in each pot (5 mL/pot), and the pot was controlled under ordinary conditions. On the day of July 6, the soil was washed out with water, whereby the plants were harvested. Subsequently, the plants were dried at 80° C. for 24 hours by a drier, and the dry weight of shoots of each plant was measured.
The test procedure of Example 21 was repeated, except that application of sulfur to soil treatment and application of other agent ingredients to foliage treatment were simultaneously performed.
The test procedure of Example 21 was repeated, except that the agent was changed.

corn = test: Corn grown in alkaline soil, foliage spray of agent every 2 weeks, plant height and dry weight of shoots; type: in vivo, corn (species: Amai bantam 90); settings: pH of soil 8.7, foliage spray 5 mL/pot every 2 weeks, sown November 15, harvested December 26
Experimental: Calcium carbonate was added to field soil so as to adjust the Ca content to 5 mass %, and an appropriate amount of aqueous sodium carbonate solution was added thereto, followed by sufficiently mixing, to thereby provide alkaline soil (pH: 8.7). A chemical fertilizer (base fertilizer) was added to the alkaline soil in an amount of 10 kg/10 a (as reduced to N). Each of the pots (1/5000 a) was filled with the above soil, and 4 seeds of corn (species: Amai bantam 90, product of Tohoku Seed Co., Ltd.) were sown in the soil on November 15, followed by cultivation in a greenhouse. Twelve days after, two uniform seedlings per pot were selected by cutting. After cutting, an aqueous solution (0.05 mass %) of each agent having a composition shown in Table 6 was sprayed every 2 weeks to the stems and leaves of the plants in each pot (5 mL/pot), and the pot was controlled under ordinary conditions. On the day of December 26, the soil was washed out with water, whereby the plants were harvested, and the plant height of each plant was measured. Subsequently, the plants were dried at 80° C. for 24 hours by a drier, and the dry weight of shoots of each plant was measured.
The test procedure of Example 17 was repeated, except that application of sulfur to soil treatment and application of other agent ingredients to foliage treatment were simultaneously performed. […]

Komatsuna [1] = test: Komatsuna grown in alkaline soil, agent applied to the soil surface every 2 weeks (soil treatment), plant height and dry weight of shoots; type: in vivo, Komatsuna (Calvita); settings: pH of soil 8.8, applied to surface of the soil 10 mL/pot every 2 weeks, 27 days after sowing
Experimental: Calcium carbonate was added to field soil so as to adjust the Ca content to 5 mass %, and an appropriate amount of aqueous sodium carbonate solution was added thereto, followed by sufficiently mixing, to thereby provide alkaline soil (pH: 8.8). A chemical fertilizer (base fertilizer) was added to the alkaline soil in an amount of 10 kg/10 a (as reduced to N) Each of the pots (1/5000 a) was filled with the above soil, and 10 seeds of Komatsuna (Calvita, product of Nohara Seed Co., Ltd.) were sown in the soil, followed by cultivation in a greenhouse. Ten days after, five uniform seedlings per pot were selected by cutting. After cutting, an aqueous solution (0.05 mass %) of each agent having a composition shown in Table 9 was applied every 2 weeks to the surface of the soil in each pot (10 mL/pot), and the pot was controlled under ordinary conditions. Twenty-seven days after sowing, the soil was washed out with water, whereby the plants were harvested, and the plant height of each plant was measured. Subsequently, the plants were dried at 80° C. for 24 hours by a drier, and the dry weight of shoots of each plant was measured.
The test procedure of Example 23 was repeated, except that application of sulfur to soil treatment and application of other agent ingredients to foliage treatment were simultaneously performed.
The test procedure of Example 23 was repeated, except that the agent was changed.

sunflower = test: Sunflower grown in alkaline soil, foliage spray of agent every 2 weeks, plant height and dry weight of shoots; type: in vivo, sunflower (Pachino-gold); settings: pH of soil 8.8, foliage spray 5 mL/pot every 2 weeks, sown June 13, measured August 10
Experimental: Culture soil (sowing mold, product of Takii Seed Co., Ltd.; 440 mg-N/L, 390 mg-P/L, and 410 mg-K/L) and plug soil for turf were mixed at 1:1, and calcium carbonate was added to the soil mixture to a Ca concentration of 5 mass %. An appropriate amount of aqueous sodium carbonate solution was added thereto, followed by sufficiently mixing, to thereby provide alkaline soil (pH: 8.8). Each of the No. 6-pots (surface area: 177 cm^2) was filled with the above-prepared soil, and on the day of June 13, 4 seeds of sunflower (Pachino-gold, product of Takii Seed Co., Ltd.) were sown in the soil, followed by cultivation in a greenhouse. Fourteen days after, two uniform seedlings per pot were selected by cutting. After cutting, an aqueous solution (0.05 mass %) of each agent having a composition shown in Table 7 was sprayed every 2 weeks to the stems and leaves of the plants in each pot (5 mL/pot), and the pot was controlled under ordinary conditions. On the day of August 10, the plant height and the dry weight of shoots of each plant were measured.
The test procedure of Example 19 was repeated, except that application of sulfur to soil treatment and application of other agent ingredients to foliage treatment were simultaneously performed.
The test procedure of Example 19 was repeated, except that the agent was changed.

[2] = tested on: plants grown in alkaline soil; settings: spraying, Non-Patent Document 1; cited from earlier work
cotton = test: Cotton grown in alkaline soil, foliage spray of agent every 2 weeks, plant height and dry weight of shoots; type: in vivo, cotton (species: Dwarf cotton); settings: pH of soil 8.8, foliage spray 5 mL/pot every 2 weeks, sown Sep. 22, harvested November 7
Experimental: Calcium carbonate was added to field soil so as to adjust the Ca content to 5 mass %, and an appropriate amount of aqueous sodium carbonate solution was added thereto, followed by sufficiently mixing, to thereby provide alkaline soil (pH: 8.8). A chemical fertilizer (base fertilizer) was added to the alkaline soil in an amount of 10 kg/10 a (as reduced to N). Each of the pots (1/5000 a) was filled with the above soil, and 6 seeds of cotton (species: Dwarf cotton, product of Sakata Seed Co.) were sown in the soil on Sep. 22, followed by cultivation in a greenhouse. Ten days after, three uniform seedlings per pot were selected by cutting. After cutting, an aqueous solution (0.05 mass %) of each agent having a composition shown in Table 4 was sprayed every 2 weeks to the stems and leaves of the plants in each pot (5 mL/pot), and the pot was controlled under ordinary conditions. On the day of November 7, the soil was washed out with water, whereby the plants were harvested, and the plant height of each plant was measured. Subsequently, the plants were dried at 80° C. for 24 hours by a drier, and the dry weight of shoots of each plant was measured.
The test procedure of Example 13 was repeated, except that sulfur was further applied to soil treatment one day after foliage treatment with other agent ingredients.
The test procedure of Example 13 was repeated, except that the agent was changed. […]

Komatsuna [3] = test: Komatsuna pot test: foliage application of agent, then sub-irrigation with pH 9.0 sodium carbonate/sodium hydrogencarbonate buffer, fresh weight of shoots; type: in vivo, Komatsuna (species: Calvita); settings: 0.05 wt. % aqueous solution of agent on stems and leaves, 5 mL/pot, pH 9.0 buffer sub-irrigation three days after treatment, measured one week after irrigation
Experimental: Each of the pots (1/5000 a) was filled with andosols soil, and Komatsuna (species: Calvita, product of Nohara Seed Co., Ltd.) was sown in the soil. At the 3 leaf stage, five uniform seedlings per pot were selected by cutting. An aqueous solution (0.05 wt. %) of each agent having a composition shown in Table 1 was applied to the stems and leaves of the plants in each pot (5 mL/pot). Sulfur powder (“sulfur, powder,” product of Wako Pure Chemical Industries, Ltd.) was separately used in an amount given in Table 1 for soil treatment. The same sulfur powder was employed in the following Examples. Three days after the treatment, sub-irrigation was performed with a 0.5-mol/L aqueous sodium carbonate/sodium hydrogencarbonate buffer (pH: 9.0). One week after irrigation, the fresh weight of shoots of the plants was measured so as to check the growth conditions.
In Comparative Example 1, water was employed instead of an aqueous solution of each agent.

Komatsuna [4] = test: Komatsuna grown in alkaline soil, foliage spray of agent every 2 weeks, plant height and dry weight of shoots; type: in vivo, Komatsuna (Calvita); settings: pH of soil 8.8, foliage spray 5 mL/pot every 2 weeks, 27 days after sowing, averaged
Experimental: Calcium carbonate was added to field soil so as to adjust the Ca content to 5 mass %, and an appropriate amount of aqueous sodium carbonate solution was added thereto, followed by sufficiently mixing, to thereby provide alkaline soil (pH: 8.8). A chemical fertilizer (base fertilizer) was added to the alkaline soil in an amount of 10 kg/10 a (as reduced to N). Each of the pots (1/5000 a) was filled with the above soil, and 10 seeds of Komatsuna (Calvita, product of Nohara Seed Co., Ltd.) were sown in the soil, followed by cultivation in a greenhouse. Ten days after, five uniform seedlings per pot were selected by cutting. After cutting, an aqueous solution (0.05 mass %) of each agent having a composition shown in Table 2 was sprayed every 2 weeks to the stems and leaves of the plants in each pot (5 mL/pot), and the pot was controlled under ordinary conditions. Twenty-seven days after sowing, the soil was washed out with water, whereby the plants were harvested. The plant height of each plant was measured. Subsequently, the plants were dried at 80° C. for 24 hours by a drier, and the dry weight of shoots of each plant was measured.
The test procedure of Example 7 was repeated, except that the amounts of ingredients were changed. […]
The test procedure of Example 7 was repeated, except that the agent was changed. […]

Cl.NCC(=O)CCC(=O)O [compound 20, 5-Aminolevulinic acid hydrochloride]
Dry weight of shoots (tomato): 4.5 g

Cl.NCC(=O)CCC(=O)O [compound 14, 5-Aminolevulinic acid hydrochloride]
Dry weight of shoots (corn): 0.30 g
Plant height (cm) (corn): 23.2 cm

Cl.NCC(=O)CCC(=O)O [compound 23, 5-Aminolevulinic acid hydrochloride]
Dry weight of shoots (Komatsuna [1]): 2.1 g
Plant height (cm) (Komatsuna [1]): 10.3 cm

Cl.NCC(=O)CCC(=O)O [compound 17, 5-Aminolevulinic acid hydrochloride]
Dry weight of shoots (sunflower): 6.8 g
Plant height (cm) (sunflower): 36 cm

O=C([O-])CN(CCN(CC(=O)[O-])CC(=O)[O-])CCN(CC(=O)[O-])CC(=O)[O-].[Fe+3].[NH4+].[NH4+] [compound 24, Ammonium diethylenetriaminepentaacetatoferrate]
Dry weight of shoots (Komatsuna [1]): 1.9 g
Plant height (cm) (Komatsuna [1]): 10.1 cm

NCC(=O)CCC(=O)O [5-aminolevulinic acid]
Foliage yield of plants [2]: prevent decrease in foliage yield

Cl.NCC(=O)CCC(=O)O [compound 10, 5-Aminolevulinic acid hydrochloride]
Dry weight of shoots (cotton): 0.9 g
Plant height (cm) (cotton): 13.1 cm

Cl.NCC(=O)CCC(=O)O [compound 2, 5-Aminolevulinic acid hydrochloride]
Fresh weight of shoots (%)(5 plants in total, relative to treatment period) (Komatsuna [3]): 55%

Cl.NCC(=O)CCC(=O)O [compound 5, 5-Aminolevulinic acid hydrochloride]
Dry weight of shoots (Komatsuna [4]): 2.2 g
Plant height (cm) (Komatsuna [4]): 11.3 cm

O=C([O-])CN(CCN(CC(=O)[O-])CC(=O)[O-])CCN(CC(=O)[O-])CC(=O)[O-].[Fe+3].[NH4+].[NH4+] [compound 6, Ammonium diethylenetriaminepentaacetatoferrate]
Dry weight of shoots (Komatsuna [4]): 2.0 g
Plant height (cm) (Komatsuna [4]): 9.8 cm
